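Briefly, cells in 96-well plates were exposed to five compound concentrations for 48 h, and endpoints were estimated by linear interpolation. Definition used: TGI = concentration required for complete inhibition of growth.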
What was measured:
Test in all cases: DTP human tumour cell line panel, 48 h
[1] = system: 786-0 renal
[2] = system: A549 NSCLC
[3] = system: ACHN renal
[4] = system: BT-549 breast
[5] = system: CAKI-1 renal
[6] = system: CCRF-CEM leukemia
[7] = system: COLO 205 colon
[8] = system: DU-145 prostate
[9] = system: EKVX NSCLC
[10] = system: HCC-2998 colon
[11] = system: HCT-116 colon
[12] = system: HCT-15 colon
[13] = system: HL-60(TB) leukemia
[14] = system: HOP-62 NSCLC
[15] = system: HOP-92 NSCLC
[16] = system: HS 578T breast
[17] = system: HT29 colon
[18] = system: IGROV1 ovarian
[19] = system: K-562 leukemia
[20] = system: KM12 colon
[21] = system: LOX IMVI melanoma
[22] = system: M14 melanoma
[23] = system: MALME-3M melanoma
[24] = system: MCF7 breast
[25] = system: MDA-MB-231 breast
[26] = system: MDA-MB-435
[27] = system: MDA-N
[28] = system: MOLT-4 leukemia
[29] = system: NCI-H226 lung
[30] = system: NCI-H23 lung
[31] = system: NCI-H460 lung
[32] = system: NCI-H522 lung
[33] = system: NCI/ADR-RES ovarian
[34] = system: OVCAR-3 ovarian
[35] = system: OVCAR-4 ovarian
[36] = system: OVCAR-5 ovarian
[37] = system: OVCAR-8 ovarian
[38] = system: PC-3 prostate
[39] = system: RPMI-8226 leukemia
[40] = system: RXF 393 renal
[41] = system: SF-268 CNS
[42] = system: SF-295 CNS
[43] = system: SF-539 CNS
[44] = system: SK-MEL-2 melanoma
[45] = system: SK-MEL-28 melanoma
[46] = system: SK-MEL-5 melanoma
[47] = system: SK-OV-3 ovarian
[48] = system: SN12C renal
[49] = system: SNB-19 CNS
[50] = system: SNB-75 CNS
[51] = system: SR leukemia
[52] = system: SW-620 colon
[53] = system: T-47D breast
[54] = system: U251 CNS
[55] = system: UACC-257 melanoma
[56] = system: UACC-62 melanoma
[57] = system: UO-31 renal

Measured: TGI

CCOC(=O)C(NC(=O)CC)(Nc1ccc(S(=O)(=O)Nc2onc(C)c2C)cc1)C(F)(F)F (configuration not stated)
> 100 µM: all assays above
